Reference: patent US11096923B2, “Pharmaceutical composition containing polymyxin B/trimethoprim based therapeutics” (University of Rochester, priority 2016, dated 2021)
Read-outs that look alike come from different tables or passages of the source.

How the values were obtained:
P. aeruginosa = experiment: MIC of clinical P. aeruginosa ocular isolates (antibiotic susceptibility profiles); type: cell-based, Pseudomonas aeruginosa; details: Pseudomonas aeruginosa, read-out: Minimum Inhibitory Concentration
Description: A series of genotyping and biological assays were used as a preliminary means to evaluate the clonality of clinical P. aeruginosa isolates collected, as follows. Genomic DNA was purified from each isolate using Qiagen DNeasy kits (Hilden, Germany) and used as a template for polymerase chain reactions to detect the presence of the virulence factors exoS, exoY, exoU, exoT, and perV using previously published primers (Table 1). See Allewelt M, Coleman F T, Grout M, Priebe G P, Pier G B. Acquisition of expression of the Pseudomonas aeruginosa ExoU cytotoxin leads to increased bacterial virulence in a murine model of acute pneumonia and systemic spread. Infection and immunity 2000; 68:3998-4004, Lomholt J A, Poulsen K, Kilian M. Epidemic population structure of Pseudomonas aeruginosa: evidence for a clone that is pathogenic to the eye and that has a distinct combination of virulence factors. Infection and immunity 2001; 69, and Ledbetter E C, Mun J J, Kowbel D, Fleiszig S M. Pathogenic phenotype and genotype of Pseudomonas aeruginosa isolates from spontaneous canine ocular infections. Investigative ophthalmology & visual science 2009; 50. […] See Institute C. Performance Standards for Antimicrobial Susceptibility Testing: Twenty-fifth Informational Supplement. Each isolate's ability to form biofilms was quantified. To do so, wells of a polystyrene plate containing 72-hour established biofilms were washed with 0.8% NaCl to remove non adherent cells and stained with crystal violet. To quantify biofilm staining, plates were washed 3 times with H2O, stain was suspended in 30% glacial acetic acid and the optical density (OD600nm) of each well was determined using an automated plate reader, as previously described. See Jacobs A C, Blanchard C E, Catherman S C, Dunman P M, Murata Y. An ribonuclease T2 family protein modulates Acinetobacter baumannii abiotic surface colonization. PloS one 2014; 9.

[1] = test system: S. aureus UAMS-1 biofilms; experiment: Biofilm susceptibility; type: cell-based, Staphylococcus aureus; details: established S. aureus biofilm, 24 hrs treatment, 32×MIC
Description: Bacterial strains used in these studies include the conventional laboratory strains Pseudomonas aeruginosa PA01 and Staphylococcus aureus UAMS-1, both of which are antibiotic susceptible and capable of forming robust biofilms. See […], Thomas J R, Nelson […]. Role of the accessory gene regulator (agr) in pathogenesis of staphylococcal osteomyelitis. Infection and immunity 1995; 63:3373-3380. Seven clinical keratitis isolates of Pseudomonas aeruginosa, were collected from the Flaum Eye Institute, Rochester N.Y. and 25 clinical isolates of Staphylococcus aureus from geographically distinct regions of the country where purchased from International Health Management Associates (IHMA; Schaumburg, Ill.). For experiments requiring planktonic cultures, the indicated organism was grown overnight in Luria-Bertani broth (LB; […] Biofilms were established by inoculating individual wells of flat-bottom polystyrene plates (Falcon, Corning Life Sciences; Durham, N.C.) with overnight cultures of the indicated organism into 200 ul of fresh LB to a final concentration of 1×10^7 CFU ml^-1. Plates were placed in a 37° C.-humidified incubator for 72 hours to allow static biofilm formation. Non-adherent cells were aspirated and biofilms were washed twice with phosphate-buffered saline prior to each experiment. […] After 24 hrs the remaining media and non-adherent cells were removed, biofilms were suspended in 0.8% NaCl and plated to quantify surviving bacteria. […] Biofilms were treated in increasing increments ranging from 0 to 64×MIC.

[2] = test system: planktonic P. aeruginosa cells; experiment: Antimicrobial kill curves; type: cell-based, Pseudomonas aeruginosa; details: 2× MIC, 4 hours post-treatment
Procedure: Overnight cultures of the indicated organism were used to inoculate (1:100 dilution) 100 ml of fresh media and grown to mid-exponential phase. […] Aliquots were taken at 1, 2, 3, 4, and 24 hours, serial diluted and plated for colony forming units.

[3] = test system: P. aeruginosa strain PA01; type: cell-based, Pseudomonas aeruginosa
Procedure: (§1) Spontaneous resistance to the indicated test agent(s) was measured for P. aeruginosa strain PA01 and S. aureus strain UAMS-1 using two liquid culture approaches. […] Growth was measured using the BacterioScan s216Dx laser microbial growth monitor, with optical measurements taken every 3 minutes over 40 hours. Following 40 hours, samples were plated for to measure viable colony forming units and re-tested for drug susceptibility.
(§2) To determine if these colonies represented untreated cells vs. resistant cells, 8 individual colonies from each treatment condition were randomly selected and tested for MICs.
(§3) Using an automated laser microbial growth monitor, the optical profiles of these cultures were measured continuously over time. […] Again 8 colonies were selected at random from each treatment group.

S. aureus strain UAMS-1 = type: cell-based, Staphylococcus aureus; details: 1×MIC, laser microbial growth monitor over 40 hours
Procedure: as §1, §2, §3

MRSA keratitis isolates = MRSA keratitis isolates collected between 1993 and 2012; cited from earlier work

SMILES | MIC (P. aeruginosa; P. aeruginosa ocular isolate RW01 (cornea)) | MIC (P. aeruginosa; P. aeruginosa ocular isolate RW02 (cornea)) | MIC (P. aeruginosa; P. aeruginosa ocular isolate RW03 (cornea)) | MIC (P. aeruginosa; P. aeruginosa ocular isolate RW04 (conjunctiva)) | MIC (P. aeruginosa; P. aeruginosa ocular isolate RW05 (cornea)) | MIC (P. aeruginosa; P. aeruginosa ocular isolate RW06 (cornea)) | MIC (P. aeruginosa; P. aeruginosa ocular isolate RW07 (cornea)) | reduction in biofilm-associated CFU [1] | reduction in CFU at hour 4 [2] | resistance of recovered cells on MIC retest [3] | time until growth of treated culture ([3]; P. aeruginosa, 1×MIC, laser microbial growth monitor over 40 hours) | start of outgrowth of treated culture (S. aureus strain UAMS-1) | isolates displaying resistance (MRSA keratitis isolates)
COc1c(N2C[C@@H]3CCCN[C@@H]3C2)c(F)cc2c(=O)c(C(=O)O)cn(C3CC3)c12 [Moxifloxacin, moxifloxacin] | 0.25 µg/mL | 0.25 µg/mL | 0.25 µg/mL | 0.25 µg/mL | 0.125 µg/mL | 0.5 µg/mL | 0.125 µg/mL | 4 log | 5 log | 2 ×MIC | approximately 22 hours | 26 h | 
COc1cc(Cc2cnc(N)nc2N)cc(OC)c1OC [trimethoprim] |  |  |  |  |  |  |  |  |  |  |  |  | 11.5%
